Consider 3 compounds from patent publication US5593678A, “Protection of teleost fish” (University of Georgia Research Foundation, priority 1994, dated 1997).

In series [1] the test system is NCC (lysis of IM-9 target cells). The series can be described thus: Costimulation assay: NCC cytotoxicity (51Cr release) with A23187 or mab 5C6. It is filed as cell-based, channel catfish (Ictalurus punctatus). Particulars: for Percentage specific release: E:T 40:1, 10^-4 M A23187, 60 μM H7 and HA1004, 0.5 μg/ml genistein, 1:3 dilution of tissue culture supernatant, media control 20.6; for activity at 0.5 µg/mL: Ictalurus punctatus, IM-9, 2 h; for influence of pretreatment on A23187 activation: pretreatment prior to A23187. How it is done:
Incubation was two hours and cells were either washed or not washed before addition to ^51 Cr-labeled IM-9 target cells (4- to 6-hour cytotoxicity assays).
To further investigate this inhibitory effect, a costimulus experiment was done using a calcium ionophore, e.g., A23187, combined with the various inhibitors and activators of NCC activity. Pretreatment of NCC with A23187 produced an almost identical increase in cytotoxicity regardless of the identity of the first treatment.
In a second costimulus experiment mab 5C6 was used (instead of A23187) to activate cytotoxicity (Table 6).

For series [2], the system named is NCC. Particulars: cited from earlier work.
Series [3] deals with NCC (lysis of IM-9 target cells). Kind of series: NCC cytotoxicity (51Cr release) after treatment with protein kinase inhibitors. The conditions noted are these: for inhibition at 30 µM / inhibition at 60 µM: E:T 80:1. It is filed as cell-based, channel catfish (Ictalurus punctatus). How it is done:
To prepare NCC, fish were lightly anesthetized with ethyl m-aminobenzoate (Sigma Chemical Co.) in water and sacrificed.
IM-9 target cells were used in cytotoxicity assays. […] Cells were grown in stationary suspension cultures and were maintained at approximately 1×10^6 cells/ml. […]

In series [4] the test system is NCC membrane proteins (tyrosine phosphorylation). The series can be described thus: Tyrosine phosphorylation of NCC membrane proteins following mab 5C6 activation (Western blot). The conditions noted are these: NCC pretreated two hours with inhibitor; 100 μg/ml genistein or 30 μM HA1004. It is filed as cell-based, channel catfish (Ictalurus punctatus). The protocol: FIG. 1. Tyrosine phosphorylation of NCC membrane proteins following activation by mab 5C6. NCC were resuspended at 500×10^6 /ml and 200 μl aliquots were incubated at 37° C. with either 125 μl ammonium sulfate precipitate mab 5C6 (left panel) or an isotype control (right panel). At the indicated timed intervals, the reactions were terminated by addition of 325 μl of 2×lysis buffer. Lysates were immunoprecipitated with mab 4G10, electrophoresed on 11% SDS-PAGE, blotted onto nitrocellulose, and probed with mab 4G10. Molecular weight markers are indicated by the arrows.
FIG. 2. Tyrosine phosphorylation of Percoll-enriched NCC. Fish NCC were centrifuged for 15 minutes at 500 g on a 45.5% Percoll cushion. The cells at the interphase were harvested, washed, and treated with mab 5C6 for 0 and 20 sec before addition of 2×lysis buffer. Lysates were electrophoresed, blotted on nitrocellulose, and probed with mab 4G10.
FIG. 3. Effects of genistein on tyrosine phosphorylation in fish NCC. Fish NCC were incubated with media, genistein (100 μg/ml), or HA1004 (30 μM) for two hours prior to activation for zero time with mab 5C6 (left lane) and 40 sec with either mab 5C6 (middle lane) or an irrelevant IgM isotype control (right lane). Reactions were stopped by addition of lysis buffer and lysates were processed as explained in the legends to FIGS. 1 and 2. […]
Background: In western blotting, separated proteins are transferred to a membrane and probed.

Series [5] concerns protein tyrosine kinase (PTK). Particulars: NK cells; cited from earlier work.
The test system of series [6] is serine/threonine phosphorylation. The conditions noted are these: NK cells; cited from earlier work.
Series [7] deals with human NK cells. Particulars: same concentration of H-7; cited from earlier work.
The test system of series [8] is cyclic nucleotide dependent kinases. Particulars: cited from earlier work.

Entries after “also recorded” stand apart in the source; their conditions may differ. Read-outs that look alike come from different tables or passages of the source.

In the case of `CNc1ccc2oc(C[C@H]3O[C@@]4(CC[C@H]3C)O[C@H]([C@H](C)C(=O)c3ccc[nH]3)[C@H](C)C[C@H]4C)nc2c1C(=O)O` [A23187], the Percentage specific release in series [1] is 81.0%. Besides, the “activation of NCC cytotoxicity” value in series [1] (Table 5) is on record as “strong activation of NCC cytotoxicity”. The “ability to overcome kinase inhibitor inhibition of NCC cytotoxicity” value in series [1] (after H-7 or genistein) is “able to overcome the inhibition produced by treatment of NCC with H-7 or genistein”. Besides, the “cytotoxicity of NCC (words, prior work)” value in series [2] is “activated NCC cytotoxicity and increased "receptor" expression”.
As to `O=c1c(-c2ccc(O)cc2)coc2cc(O)cc(O)c12` [Genistein, genistein], in series [3], the “inhibition of NCC cytotoxicity” value is reported as “almost completely inhibited NCC activity in a dose-dependent fashion”. Further, the inhibition at 142 µg/mL is around 100% in series [3] (Ictalurus punctatus, IM-9, 142 μg/ml, read-out: inhibition of cytotoxicity) and 94% in series [3] (Ictalurus punctatus, 142.0 μg/ml, E:T 20:1, 6 hours, read-out: Percentage inhibition (NCC lysis of IM-9)). In addition, the inhibition at 14.2 µg/mL in series [3] (Ictalurus punctatus, 14.2 μg/ml, E:T 20:1, 6 hours, read-out: Percentage inhibition (NCC lysis of IM-9)) turned out to be 55.5%. Further, the inhibition at 28.4 µg/mL in series [3] (Ictalurus punctatus, 28.4 μg/ml, E:T 20:1, 6 hours, read-out: Percentage inhibition (NCC lysis of IM-9)) worked out at 75.9%. The inhibition at 57 µg/mL in series [3] (Ictalurus punctatus, 57.0 μg/ml, E:T 20:1, 6 hours, read-out: Percentage inhibition (NCC lysis of IM-9)) is 64.9%. Also, in series [3] (between approximately 14 and approximately 57 μg/ml), the inhibition of cytotoxicity result is on record as “greater than 50%”. Also, the Percentage specific release in series [1] is on record as 11.0%. The activity at 0.5 µg/mL in series [1] (4 × 10^6 NCC/ml, mabs 1:50 dilution, H-7, HA1004 60 μM, genistein 0.5 μg/ml, read-out: Percentage of control (E:T ratio) 40%) amounted to 38.9%; in series [1] (mabs 1:50 dilution, H-7, HA1004 60 μM, genistein 0.5 μg/ml, read-out: Percentage of control (E:T ratio) 20%), 35.5%. The “influence of pretreatment on A23187 activation” value in series [1] was “did not produce any reductions in A23187 activation; also recorded: did not appear to be additive and did not influence the final level of activation”. Also, in series [4], the “specific protein phosphorylation after mab 5C6” value is listed as “Specific protein phosphorylation was not observed”. For the same compound, the “PTK activity” value in series [5] is listed as “inhibit PTK activity”. The “serine/threonine phosphorylation” value in series [6] is “no effect on serine/threonine phosphorylation”.
As for `CC1CNCCN1S(=O)(=O)c1cccc2cnccc12.Cl.Cl` (stereo not shown) [H-7, 1-(5-isoquinolinesulfonyl)-2-methylpiperazine di-HCl], the inhibition at 30 µM in series [3] (Ictalurus punctatus, 1 h, read-out: Percentage inhibition (NCC lysis of IM-9), 30 μM, 60 min) is 12.5%; in series [3] (Ictalurus punctatus, 2 h, read-out: Percentage inhibition (NCC lysis of IM-9), 30 μM, 120 min), 31%; in series [3] (Ictalurus punctatus, 3 h, read-out: Percentage inhibition (NCC lysis of IM-9), 30 μM, 180 min/wash), 34.2%; in series [3] (Ictalurus punctatus, 3 h, read-out: Percentage inhibition (NCC lysis of IM-9), 30 μM, 180 min) it was 37.8%. The inhibition at 60 µM in series [3] (Ictalurus punctatus, 1 h, read-out: Percentage inhibition (NCC lysis of IM-9), 60 μM, 60 min) turned out to be 10.2%; in series [3] (Ictalurus punctatus, 2 h, read-out: Percentage inhibition (NCC lysis of IM-9), 60 μM, 120 min), 12.6%; in series [3] (Ictalurus punctatus, 3 h, read-out: Percentage inhibition (NCC lysis of IM-9), 60 μM, 180 min/wash) it was 34.5%; in series [3] (Ictalurus punctatus, 3 h, read-out: Percentage inhibition (NCC lysis of IM-9), 60 μM, 180 min) it was 35.7%. Besides, the “level of inhibition of NCC activity” value in series [3] (summary of Table 1) is given as “approximately 35%”. Besides, in series [3] (washed prior to addition of target cells), the “effect of removal (washing) of inhibitor on cytotoxicity” value is “did not substantially affect the cytotoxicity”. In addition, in series [1] (4 × 10^6 NCC/ml, mabs 1:50 dilution, H-7, HA1004 60 μM, genistein 0.5 μg/ml, 120 min), the “Percentage of control (E:T ratio) 40%” value worked out at 37.5%. Moreover, the Percentage specific release in series [1] came out at 9.1%. For the same compound, in series [1] (mabs 1:50 dilution, H-7, HA1004 60 μM, genistein 0.5 μg/ml, 120 min), the “Percentage of control (E:T ratio) 20%” value was found to be 53.9%. Moreover, the “influence of pretreatment on A23187 activation” value in series [1] (di-HCl) is “did not produce any reductions in A23187 activation; also recorded: did not appear to be additive and did not influence the final level of activation”. In series [7], the “inhibition of human NK cells” value is 60-90%. Moreover, the “inhibition of cyclic nucleotide dependent kinases” value in series [8] was “to a lesser extent it inhibits cyclic nucleotide kinases”.
